Data reported in US10463694B2, “Functional segregated telodendrimers and nanocarriers and methods of making and using same” (The Research Foundation for the State University of New York, priority 2014, dated 2019).
“And” between values parts separate entries of the source, which are not always exact repeats. Equal entries are not always repeated.

Key:
[1] = tested on: SKOV-3 tumor xenograft; test: NIRF optical animal imaging, in vivo and ex vivo; parameters: species or system nude mice; conditions: in vivo whole body imaging
Protocol: DiD (a hydrophobic near-infrared (NIR) cyanine dye) was encapsulated in each nanocarrier (together with PTX and CDDP) at a ratio of 2:1:0.1 (CDDP/PTX/DiD by weight) using the same method as described above. The particle size was measured by DLS analysis. 100 μL of TM(DiD-PTX-CDDP) solution was filtered with a 0.22 μm filter to sterilize solution before injection. At the same time, same amount of DiD in DMSO solution was diluted with PBS right before I.V. injection. The fluorescent DiD co-loaded TM with equivalent dose of 6 mg/kg CDDP were injected into nude mice bearing SKOV-3 tumor xenograft via tail vein. Mice were anesthetized via isoflurane and optically imaged at different time points (1 h, 2 h, 4 h, 8 h, 24 h, 48 h and 72 h) using an IVIS 200 (PerkinElmer) with the (excitation/emission 625/700 nm). At the end of the experiments, the animals were sacrificed and all the major organs as well as tumors were excised for ex vivo imaging to determine the in vivo biodistribution of nanoparticles. The associated fluorescence intensities were determined by Living Image software (Caliper Life Sciences) using operator-defined regions of interest (ROI) measurements.

[2] = tested on: Hela cells; test: MTS cytotoxicity and combination index, Hela; assay type: cell-based; conditions: 72 h
[3] = tested on: SKOV-3 ovarian cancer cells; test: MTS cytotoxicity and combination index, SKOV-3; assay type: cell-based, human; conditions: 72 h
Protocol: (§1) In vitro synergistic cytotoxicity: The cytotoxicity of blank micelles and drug-loaded micelle were assessed by measuring the cell viability using the standard MTS assay. SKOV-3 ovarian cancer cells and ES-2 ovarian cancer cells were seeded in 96-well plates at 4×10^3 cells per well in 100 μL of McCoy's 5A with L-glutamine containing 10% fetal bovine serum, supplemented with 50 U/mL penicillin and 50 U/mL streptomycin, and incubated at 37° C. in 5% CO2 atmosphere for 24 h. Different concentrations of the empty micelle solutions and drug-loaded micelles were added into the cell medium. After 72 h incubation, Cell Titer 96® Aqueous Cell Proliferation Reagent, which is composed of MTS and an electron coupling reagent PMS, was added to each well according to the manufacturer's instructions. The cell viability was determined by measuring the absorbance at 490 nm using a micro-plate reader. […]
(§2) The effective method to evaluate synergistic drug combinations in vitro is median-effect analysis, as originally proposed by Chou and Talalay (Chou T C. Theoretical basis, experimental design, and computerized simulation of synergism and antagonism in drug combination studies. Pharmacol Rev. 2006; 58:621-81. Chou T C, Talalay P. Quantitative analysis of dose-effect relationships: the combined effects of multiple drugs or enzyme inhibitors. Adv Enzyme Regul. 1984; 22:27-55.). […]

[4] = tested on: SKOV-3 ovarian cancer xenografts; test: In vivo anticancer efficacy
Protocol: Xenograft Mouse Models. Female athymic nude mice (Nu/Nu strain), 5-6 weeks age, were purchased from Harlan (Livermore, Calif.). All animals were kept under pathogen-free conditions according to AAALAC (Association for Assessment and Accreditation of Laboratory Animal Care) guidelines and were allowed to acclimatize for at least 4 days prior to any experiments. All animal experiments were performed in compliance with institutional guidelines and according to protocol approved by the Animal Use and Care Administrative Advisory Committee. SKOV-3 ovarian cancer cells (7×10^6) in a 100/IL of mixture of PBS and Matrigel (1:1 v/v) without fetal bovine serum (FBS) were injected subcutaneously into the flanks of nude mice to form nodules.
In vivo anticancer efficacy. Nude mice bearing human SKOV3 ovarian cancer tumor (approximately 150 mm^3) were randomly divided into 6 groups (n=5), including control (PBS only), free CDDP (4 mg/kg CDDP), TM(PTX) (3 mg/kg PTX), PEG(CDDP) (4 mg/kg CDDP), TM(CDDP) (6 mg/kg CDDP), and TM(CDDP/PTX=2:1) (6 mg/kg CDDP, 3 mg/kg PTX). Treatments were administered 3 times totally via tail vein on day 0, 4 and 8. Animal body weight and tumor volume were monitored every second day. Seven days after the last treatment, about 100 μL of blood was collected via tail bleeding for blood counts. The tumor sizes were measured with electronic calipers, and calculated using the following formula: V=(shortest diameter^2×longest diameter)/2.

[5] = tested on: ES-2 ovarian cancer cells; test: MTS cytotoxicity and combination index, ES2; assay type: cell-based; conditions: 72 h
Protocol: as §1, §2

[6] = cancer treatment in mouse models; cited from earlier work
[7] = Tissue biodistribution of Pt by ICP-MS; assay type: in vivo, nude mice; conditions: 48 h post-injection
Protocol: Free CDDP and TM (CDDP/PTX=2:1) were injected into nude mice via tail vein at a single equivalent dose of CDDP 6 mg/kg. At 48 h post-injection, major organs (heart, liver, spleen, lung and kidney) and tumor tissues were harvested from the mice. The organs were weighed and dissolved in the concentrated nitric acid by heating up (70° C.) and evaporated to dryness, and then re-dissolved in 0.1N HCl for tissue biodistribution of Pt analysis by ICP-MS.

[8] = Pharmacokinetics of platinum in plasma after i.v. injection; assay type: in vivo, mice
Protocol: Pharmacokinetics and biodistribution. The blood pharmacokinetics study were performed using female SPF BALB/c mice, which were purchased from Charles River Laboratories Inc. Nanocarriers were administered into mice via tail vein injection with free drug mixture of CDDP/PTX or co-loading TM (CDDP/PTX=2:1) solution at a single equivalent dose of CDDP/PTX 6/3 mg/kg via tail vein. At defined time points (5 min, 0.5 h, 1 h, 2 h, 4 h, 8 h, 24 h and 48 h), blood samples were collected into heparinized tubes and immediately centrifuged at 1,000 rpm for 15 min to obtain plasma. Plasma samples were dissolved on heat in nitric acid and the platinum contents were measured by ICP-MS. The percentage of injected dose in plasma was calculated considering plasma volume in mice to be 45.6 mL/kg. (King F G, Dedrick R L. Physiological pharmacokinetic parameters for cis-dichlorodiammineplatinum(II) (DDP) in the mouse. J Pharmacokinet Biopharm. 1992; 20:95-9.)

[9] = tested on: wide variety of cancer cells in culture; conditions: cited from earlier work
[10] = in vivo; cited from earlier work
[11] = DOX release, dialysis against PBS; assay type: physicochemical; conditions: dialysis against PBS at 37° C.
Protocol: DOX Release. 1 mL of DOX-PEG^5KCHA4-L-Rh4 (1.5:15.0) solution was distributed into three dialysis tube and dialyzed against 50 ml PBS at 37° C., respectively, in comparison with free DOX. The samples were placed in conical tubes filled with PBS, which was refreshed at the time of UV-Vis measuring at 550 nm (FIG. 13). The free DOX was completely released by 10 hours but the loaded DOX remained encapsulated at around 50% by the time the study was finished at 96 hours. This indicates the high DOX binding affinity within PEG^5KCHA4-L-Rh4 micelles and a sustained DOX release would reduce in vivo toxicity of payload drug and increase tumor targeting effects via the prolonged circulating to take EPR effects.

[12] = first figure of co-loaded cells
[13] = platinum in plasma, i.v., two compartment model

For `CCCCCCCCCCCCCCCCCCN1C(=CC=CC=CC2=[N+](CCCCCCCCCCCCCCCCCC)c3ccccc3C2(C)C)C(C)(C)c2ccccc21.[O-][Cl+3]([O-])([O-])[O-]` [free DiD, 1,1′-dioctadecyl-3,3,3,′,3′-tetramethylindodicarbocyanine perchlorate], the tumor fluorescence [1] was “very weak tumor fluorescence”.
With `[NH2][Pt]([NH2])([Cl])[Cl]` [CDDP, Cisplatin] the “Hela IC50, CDDP concentration” value [2, 12] was 2.427 µg/mL, the “SKOV-3 IC50, CDDP concentration” value ([3]; first figure of co-loaded cells (CDDP/PTX)) was 1.354 µg/mL and the medium survival time ([4]; 4 mg/kg CDDP) was 15 days. For the same compound, the body weight loss ([4]; 4 mg/kg CDDP on days 0, 4, 8, day 12) was “exceeded 20%”, the mortality ([4]; 4 mg/kg CDDP, deaths on day 12, 13, 15, 16 and 17) was “died” and the “WBC count versus PBS control” value ([4]; day 7 after the last injection, 4 mg/kg CDDP) was “significantly decreased”. For the same compound, the “ES2 IC50, CDDP concentration” value [5, 12] was 0.92 µg/mL, the “maximum tolerated dose (MTD)” value [6] was at most 4 mg/kg and the “kidney/tumor ratio of Pt concentrations” value [7] was 4. For the same compound, the “liver/tumor ratio of Pt concentrations” value [7] was 2, the “Pt of the injected dose in plasma” value ([8]; 30 min after injection) was 5% and the “Pt of the injected dose in plasma” value ([8]; 24 h post injection) was “less than 1%”. The Cmax ([8]; platinum in plasma, 5 min post iv injection) was 27600 ng/mL and 27580 ng/mL, the AUC ([8]; platinum in plasma, i.v.) was 30800 ng·h/mL and the CL ([8]; platinum in plasma, i.v.) was 2.1645 mL/min/kg. It also gave a CL2 ([8]; platinum in plasma, i.v.) of 9.3217 mL/min/kg, a Vss ([8]; platinum in plasma, i.v.) of 0.6681 L/kg and a t1/2α [8, 13] of 2.64 min. For the same compound, the t1/2β [8, 13] was 258 min.
In the case of `CC(=O)O[C@H]1C(=O)[C@@]2(C)[C@H]([C@H](OC(=O)c3ccccc3)[C@]3(O)C[C@H](OC(=O)[C@H](O)[C@@H](NC(=O)c4ccccc4)c4ccccc4)C(C)=C1C3(C)C)[C@]1(OC(C)=O)CO[C@@H]1C[C@@H]2O` [PTX, paclitaxel], the “potency relative to CDDP (IC50s: low nM vs low μM)” value [9] is given as about 1000 times, the IC50 ([2]; Homo sapiens, HeLa, second figure of co-loaded cells, read-out: Hela IC50, PTX concentration) is given as 0.02 µg/mL and the IC50 ([3]; Homo sapiens, SK-OV-3, second figure of co-loaded cells (CDDP/PTX), read-out: SKOV-3 IC50, PTX concentration) is given as 0.032 µg/mL. For the same compound, the t1/2 in human [10] was 20.4 min and the IC50 ([5]; second figure of co-loaded cells, read-out: ES2 IC50, PTX concentration) was 0.055 µg/mL.
With `COc1cccc2c1C(=O)c1c(O)c3c(c(O)c1C2=O)C[C@@](O)(C(=O)CO)C[C@@H]3O[C@H]1C[C@H](N)[C@H](O)[C@H](C)O1` [free DOX, Doxorubicin] the “time to complete DOX release” value [11] was at most 10 h.
